The numbers were not newly measured in patent US10485764B2, “Lyophilized pharmaceutical compositions” (Otsuka Pharmaceutical Co., Ltd., priority 2015, dated 2019), which cites them from elsewhere.

This data set relates to HDAC. The note with it: in vitro or in vivo, from literature.
With `O=C(/C=C/c1cccc(C(=O)NO)c1)NO` [CBHA, m-carboxy-cinnamic acid bishydroxamic acid], the HDAC inhibition entry is “micromolar concentration or lower”.

For the compound `C/C=C1\NC(=O)[C@H]2CSSCC/C=C/[C@H](CC(=O)N[C@H](C(C)C)C(=O)N2)OC(=O)[C@H](C(C)C)NC1=O` [FR901228], the HDAC inhibition result was “micromolar concentrations”.

Regarding depudecin, the HDAC inhibition entry was “micromolar concentrations”.

On to trichostatin A [TSA], for which the HDAC inhibition entry is recorded as “potent inhibitor of mammalian HDAC”.
